≈ marks a conversion by molar mass, not a printed value.
Tests used:
Format in all cases: functional
Pseudomonas aeruginosa [1] = test: Antibacterial activity against Pseudomonas aeruginosa NCIM 2036 measured after 8 hrs by spectrophotometric method; details: NCIM 2036, 8 h
Staphylococcus aureus [2] = test: Antibacterial activity against Staphylococcus aureus NCIM 2079 measured after 12 hrs by spectrophotometric method; details: NCIM 2079, 12 h
Escherichia coli [3] = test: Antibacterial activity against Escherichia coli NCIM 2688 measured after 8 hrs by spectrophotometric method; details: NCIM 2688, 8 h
Bacillus subtilis [4] = test: Antibacterial activity against Bacillus subtilis NCIM 2010 measured after 12 hrs by spectrophotometric method; details: NCIM 2010, 12 h
[5] = test system: Mycobacterium tuberculosis; test: Antitubercular activity against dormant stage Mycobacterium tuberculosis H37Ra measured after 12 days by XTT assay; details: 288 h
Escherichia coli [6] = test: Antibacterial activity against Escherichia coli NCIM 2688 at 30 ug/ml measured after 8 hrs by spectrophotometric method; details: NCIM 2688, 8 h
Escherichia coli [7] = test: Antibacterial activity against Escherichia coli NCIM 2688 at 10 ug/ml measured after 8 hrs by spectrophotometric method; details: NCIM 2688, 8 h
Escherichia coli [8] = test: Antibacterial activity against Escherichia coli NCIM 2688 at 3 ug/ml measured after 8 hrs by spectrophotometric method; details: NCIM 2688, 8 h
Pseudomonas aeruginosa [9] = test: Antibacterial activity against Pseudomonas aeruginosa NCIM 2036 at 30 ug/ml measured after 8 hrs by spectrophotometric method; details: NCIM 2036, 8 h
Pseudomonas aeruginosa [10] = test: Antibacterial activity against Pseudomonas aeruginosa NCIM 2036 at 10 ug/ml measured after 8 hrs by spectrophotometric method; details: NCIM 2036, 8 h
Pseudomonas aeruginosa [11] = test: Antibacterial activity against Pseudomonas aeruginosa NCIM 2036 at 3 ug/ml measured after 8 hrs by spectrophotometric method; details: NCIM 2036, 8 h
Staphylococcus aureus [12] = test: Antibacterial activity against Staphylococcus aureus NCIM 2079 at 30 ug/ml measured after 12 hrs by spectrophotometric method; details: NCIM 2079, 12 h
Staphylococcus aureus [13] = test: Antibacterial activity against Staphylococcus aureus NCIM 2079 at 10 ug/ml measured after 12 hrs by spectrophotometric method; details: NCIM 2079, 12 h
Staphylococcus aureus [14] = test: Antibacterial activity against Staphylococcus aureus NCIM 2079 at 3 ug/ml measured after 12 hrs by spectrophotometric method; details: NCIM 2079, 12 h
Bacillus subtilis [15] = test: Antibacterial activity against Bacillus subtilis NCIM 2010 at 30 ug/ml measured after 12 hrs by spectrophotometric method; details: NCIM 2010, 12 h
Bacillus subtilis [16] = test: Antibacterial activity against Bacillus subtilis NCIM 2010 at 10 ug/ml measured after 12 hrs by spectrophotometric method; details: NCIM 2010, 12 h
Bacillus subtilis [17] = test: Antibacterial activity against Bacillus subtilis NCIM 2010 at 3 ug/ml measured after 12 hrs by spectrophotometric method; details: NCIM 2010, 12 h
[18] = test system: Mycobacterium tuberculosis; test: Antitubercular activity against dormant stage Mycobacterium tuberculosis H37Ra at 30 ug/ml measured after 12 days by XTT assay; details: 288 h
[19] = test system: Mycobacterium tuberculosis; test: Antitubercular activity against dormant stage Mycobacterium tuberculosis H37Ra at 10 ug/ml measured after 12 days by XTT assay; details: 288 h
[20] = test system: Mycobacterium tuberculosis; test: Antitubercular activity against dormant stage Mycobacterium tuberculosis H37Ra at 3 ug/ml measured after 12 days by XTT assay; details: 288 h

| SMILES | IC50 (Pseudomonas aeruginosa [1]) [µg/mL] | MIC (Pseudomonas aeruginosa [1]) [µg/mL] | IC50 (Staphylococcus aureus [2]) [µg/mL] | MIC (Staphylococcus aureus [2]) [µg/mL] | IC50 (Escherichia coli [3]) [µg/mL] | MIC (Escherichia coli [3]) [µg/mL] | IC50 (Bacillus subtilis [4]) [µg/mL] | MIC (Bacillus subtilis [4]) [µg/mL] | IC50 [5] [µg/mL] | MIC [5] [µg/mL] | inhibition at 30 µg/mL (Escherichia coli [6]) [%] | inhibition at 10 µg/mL (Escherichia coli [7]) [%] | inhibition at 3 µg/mL (Escherichia coli [8]) [%] | inhibition at 30 µg/mL (Pseudomonas aeruginosa [9]) [%] | inhibition at 10 µg/mL (Pseudomonas aeruginosa [10]) [%] | inhibition at 3 µg/mL (Pseudomonas aeruginosa [11]) [%] | inhibition at 30 µg/mL (Staphylococcus aureus [12]) [%] | inhibition at 10 µg/mL (Staphylococcus aureus [13]) [%] | inhibition at 3 µg/mL (Staphylococcus aureus [14]) [%] | inhibition at 30 µg/mL (Bacillus subtilis [15]) [%] | other results |
| --- | --- | --- | --- | --- | --- | --- | --- | --- | --- | --- | --- | --- | --- | --- | --- | --- | --- | --- | --- | --- | --- |
| O=C1OC2(CCNC2)CN1c1ccc(N2CCOCC2)c(F)c1 (stereo not given) | > 100 | > 100 | > 100 | > 100 | 4.44 (≈ 13.8 µM) | 0.554 (≈ 1.72 µM) | > 100 | > 100 | > 100 | > 100 | 99.8 | 96.2 | 86.4 | 36.2 | 32.2 | 22.6 | 50.2 | 46.8 | 36.2 | 32.2 | inhibition at 10 µg/mL (Bacillus subtilis [16]): 21.5%; inhibition at 3 µg/mL (Bacillus subtilis [17]): 8.05%; inhibition at 30 µg/mL [18]: 49.3%; inhibition at 10 µg/mL [19]: 17%; inhibition at 3 µg/mL [20]: 13.6% |
| N#Cc1ccc(NC(=S)NC[C@H]2CN(c3ccc(N4CC5(COC5)C4)c(F)c3)C(=O)O2)cc1 | > 100 | > 100 | 1.03 (≈ 2.2 µM) | 11.2 (≈ 24 µM) | 1 (≈ 2.14 µM) | 9.54 (≈ 20.4 µM) | 0.86 (≈ 1.84 µM) | 3.87 (≈ 8.28 µM) | > 100 | > 100 | 95.7 | 93.2 | 78.2 | 50 | 46.6 | 22.1 | 94.3 | 91.6 | 75.6 | 98 | inhibition at 10 µg/mL (Bacillus subtilis [16]): 97.6%; inhibition at 3 µg/mL (Bacillus subtilis [17]): 81.3%; inhibition at 30 µg/mL [18]: 34.7%; inhibition at 10 µg/mL [19]: 58.1%; inhibition at 3 µg/mL [20]: 34.5% |
| CC(C)(C)NC(=S)NC[C@H]1CN(c2ccc(N3CC4(COC4)C3)c(F)c2)C(=O)O1 | > 100 | > 100 | 1.45 (≈ 3.43 µM) | 9.15 (≈ 21.7 µM) | 1.38 (≈ 3.27 µM) | 22.8 (≈ 53.9 µM) | > 100 | > 100 | > 100 | > 100 | 100 | 84 | 75.7 | 62.7 | 37.5 | 0 | 98.9 | 90.4 | 82.1 | 97.2 | inhibition at 10 µg/mL (Bacillus subtilis [16]): 79.3%; inhibition at 3 µg/mL (Bacillus subtilis [17]): 66.3%; inhibition at 30 µg/mL [18]: -6.69%; inhibition at 10 µg/mL [19]: -3.66%; inhibition at 3 µg/mL [20]: 9.56% |
| CC(C)NC(=S)NC[C@H]1CN(c2ccc(N3CC4(COC4)C3)c(F)c2)C(=O)O1 | 1.27 (≈ 3.11 µM) | 32.3 (≈ 79 µM) | > 100 | > 100 | > 100 | > 100 | 0.64 (≈ 1.57 µM) | 6.04 (≈ 14.8 µM) | > 100 | > 100 | 91.3 | 58.9 | 46.7 | 91.4 | 83.8 | 72.6 | 93 | 75.2 | 58.8 | 99.3 | inhibition at 10 µg/mL (Bacillus subtilis [16]): 95.1%; inhibition at 3 µg/mL (Bacillus subtilis [17]): 82%; inhibition at 30 µg/mL [18]: 48.8%; inhibition at 10 µg/mL [19]: 7.27%; inhibition at 3 µg/mL [20]: -11.7% |

Source: ChEMBL document CHEMBL3865816, “Design, synthesis and biological evaluation of novel azaspiro analogs of linezolid as antibacterial and antitubercular agents” (Eur J Med Chem, 2016)
